According to ChEMBL document CHEMBL1149890, “Brianodins A-D, briarane-type diterpenoids from soft coral Pachyclavularia sp” (J Nat Prod, 2008):
Converted amounts (≈) assume the structure as drawn.

Key:
[1] = tested on: L1210; test: Cytotoxicity against mouse L1210 cells; assay type: functional, cell-based
[2] = tested on: KB; test: Cytotoxicity against human KB cells; assay type: functional, cell-based

| SMILES | IC50 [1] [µg/mL] | IC50 [2] [µg/mL] |
| --- | --- | --- |
| CC(=O)O[C@@H]1C/C(C)=C\[C@@H]2OC(=O)[C@]3(C)O[C@]23[C@@H](OC(C)=O)[C@H]2[C@](C)(O)[C@H](OC(C)=O)C=C[C@]2(C)[C@@H]1O [BRIANODIN A] | 1.8 (≈ 3.44 µM) | 4.3 (≈ 8.23 µM) |
| CC(=O)O[C@@H]1[C@H](O)[C@@H](OC(C)=O)/C(C)=C\[C@@H]2OC(=O)[C@@](C)(O)[C@@]2(O)[C@@H](OC(C)=O)[C@H]2[C@](C)(O)[C@H](OC(C)=O)C=C[C@]12C [BRIANODIN B] | – | > 10 |
| CC(=O)O[C@@H]1[C@H](O)[C@@H](OC(C)=O)/C(C)=C\[C@@H]2OC(=O)[C@@](C)(O)[C@@]2(O)[C@@H](OC(C)=O)[C@H]2[C@](C)(O)[C@H](O)C=C[C@]12C [BRIANODIN C] | – | > 10 |
| CC(=O)O[C@@H]1C/C(C)=C\[C@@H]2OC(=O)[C@@](C)(O)[C@@]2(O)[C@@H](OC(C)=O)[C@H]2[C@](C)(O)[C@H](O)C=C[C@]2(C)[C@@H]1O [BRIANODIN D] | – | > 10 |
